Data from patent US10227323B2, “Glucosylceramide synthase inhibitors for the treatment of diseases” (BIOMARIN PHARMACEUTICAL INC., priority 2013, dated 2019).

Target: T1, GCS (Canis lupus familiaris, UniProt A0A8I3MXG6)
T1 sequence (A0A8I3MXG6 1-394): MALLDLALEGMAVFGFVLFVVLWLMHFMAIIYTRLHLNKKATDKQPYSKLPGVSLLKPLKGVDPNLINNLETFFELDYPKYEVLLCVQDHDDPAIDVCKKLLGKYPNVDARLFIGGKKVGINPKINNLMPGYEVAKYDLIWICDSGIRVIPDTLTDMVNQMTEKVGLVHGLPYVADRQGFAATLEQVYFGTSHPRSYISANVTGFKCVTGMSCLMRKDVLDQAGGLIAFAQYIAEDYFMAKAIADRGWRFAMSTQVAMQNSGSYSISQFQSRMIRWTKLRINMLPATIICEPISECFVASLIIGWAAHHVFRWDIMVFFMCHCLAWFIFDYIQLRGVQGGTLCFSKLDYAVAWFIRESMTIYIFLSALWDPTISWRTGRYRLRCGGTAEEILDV
Assay: Assay 1: GCS Enzymatic Assay (MDCK cell lysate, C6-NBD-Ceramide, LC/MS)
Assay type: biochemical, canine
Details: Table 2; for % inhibition generated from Assay 1: data marked by *; for IC50: data without asterisk, read-out: IC50 (nM) generated from Assay 1
In short: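 LC/MS/MS measurement of glucosylceramide and NBD-ceramide after a 1 h, 37 °C reaction with 100 μM UDP-glucose and 10 μM C6-NBD-ceramide gave IC50s or percent inhibition.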

IC50	Compound	% inhibition generated from Assay 1
< 50 nM	O=C(N[C@H](CN1CCCC1)[C@H](O)c1ccc(OC2CC2)c(Cl)c1)C(=O)c1ccc(-c2ccc3sc(Cl)cc3c2)cc1 [Example 263, N-((1R,2R)-1-(3-chloro-4-cyclopropoxyphenyl)-1-hydroxy-3-(pyrrolidin-1-yl)propan-2-yl)-2-(4-(2-chlorobenzo[b]thiophen-5-yl)phenyl)-2-oxoacetamide]	–
< 50 nM	CC(C)n1ccc2cc(-c3ccc(C(=O)C(=O)N[C@H](CN4CCCC4)[C@H](O)c4ccc(OC5CC5)c(Cl)c4)cc3)ccc21 [Example 266, N-((1R,2R)-1-(3-chloro-4-cyclopropoxyphenyl)-1-hydroxy-3-(pyrrolidin-1-yl)propan-2-yl)-2-(4-(1-isopropyl-1H-indo1-5-yl)phenyl)-2-oxoacetamide]	–
< 50 nM	O=C(N[C@H](CN1CCCC1)[C@H](O)c1ccc2c(c1F)OCCO2)C(=O)c1ccc(-c2ccc(F)cc2)cc1 [Example 268, N-((1R,2R)-1-(5-fluoro-2,3-dihydrobenzo[b][1,4]dioxin-6-yl)-1-hydroxy-3-(pyrrolidin-1-yl)propan-2-yl)-2-(4′-fluoro-[1,1′-biphenyl]-4-yl)-2-oxoacetamide]	–
< 50 nM	O=C(N[C@H](CN1CCCC1)[C@H](O)c1ccc(OC2CC2)c(Cl)c1)C(=O)c1ccc(-c2ccc(Cl)cc2)cc1 [Example 270, N-((1R,2R)-1-(3-chloro-4-cyclopropoxyphenyl)-1-hydroxy-3-(pyrrolidin-1-yl)propan-2-yl)-2-(4′-chloro-[1,1′-biphenyl]-4-yl)-2-oxoacetamide]	–

More lines, now with the values behind:

Compound	IC50	% inhibition generated from Assay 1
O=C(N[C@H](CN1CCCC1)[C@H](O)c1ccc(OC2CC2)c(Cl)c1)C(=O)N1CCN(c2ccc(F)cc2)CC1 [Example 262, N-((1R,2R)-1-(3-chloro-4-cyclopropoxyphenyl)-1-hydroxy-3-(pyrrolidin-1-yl)propan-2-yl)-2-(4-(4-fluorophenyl)piperazin-1-yl)-2-oxoacetamide]	–	B* (the compound had a % inhibition of greater than or equal to about 3% but less than about 50%)
O=C(N[C@H](CN1CCCC1)[C@H](O)c1ccc(OC2CC2)c(Cl)c1)C(=O)c1ccc(-c2ccc(F)cc2)cn1 [Example 264, N-((1R,2R)-1-(3-chloro-4-cyclopropoxyphenyl)-1-hydroxy-3-(pyrrolidin-1-yl)propan-2-yl)-2-(5-(4-fluorophenyl)pyridin-2-yl)-2-oxoacetamide]	< 50 nM	–
O=C(N[C@H](CN1CCCC1)[C@H](O)c1ccc(OC2CC2)c(C(F)(F)F)c1)C(=O)c1ccc(-c2ccc(F)cc2)cc1 [Example 265, N-((1R,2R)-1-(4-cyclopropoxy-3-(trifluoromethyl)phenyl)-1-hydroxy-3-(pyrrolidin-1-yl)propan-2-yl)-2-(4′-fluoro-[1,1′-biphenyl]-4-yl)-2-oxoacetamide]	–	B* (the compound had a % inhibition of greater than or equal to about 3% but less than about 50%)
O=C(N[C@H](CN1CCCC1)[C@H](O)c1ccc2c(c1)OCCO2)C(=O)c1ccc(-c2ccc(Cl)cc2)cc1 [Example 267, 2-(4′-chloro-[1,1′-biphenyl]-4-yl)-N-((1R,2R)-1-(2,3-dihydrobenzo[b][1,4]dioxin-6-yl)-1-hydroxy-3-(pyrrolidin-1-yl)propan-2-yl)-2-oxoacetamide]	< 50 nM	–
CC(C)n1ccc2cc(-c3ccc(C(=O)C(=O)N[C@H](CN4CCCC4)[C@H](O)c4cc(F)c5c(c4)OCCO5)cc3)ccc21 [Example 269, N-((1R,2R)-1-(8-fluoro-2,3-dihydrobenzo[b][1,4]dioxin-6-yl)-1-hydroxy-3-(pyrrolidin-1-yl)propan-2-yl)-2-(4-(1-isopropyl-1H-indol-5-yl)phenyl)-2-oxoacetamide]	< 50 nM	–
CC(C)n1cnc2cc(-c3ccc(C(=O)C(=O)N[C@H](CN4CCCC4)[C@H](O)c4ccc(OC5CC5)c(Cl)c4)cc3)ccc21 [Example 271, N-((1R,2R)-1-(3-chloro-4-cyclopropoxyphenyl)-1-hydroxy-3-(pyrrolidin-1-yl)propan-2-yl)-2-(4-(1-isopropyl-1H-benzo[d]imidazol-5-yl)phenyl)-2-oxoacetamide]	< 50 nM	–
